Data from patent publication US11279708B2, “Amidino- and amino-rocaglates as novel translation inhibitors and anticancer agents” (priority 2019, dated 2022).

Key:
[1] = system: eIF4A-dependent translation; test: in vitro translation assay, bicistronic FF/HCV/Ren reporter mRNA in Krebs-2 extracts; type: biochemical; details: for IC50: bicistronic FF/HCV/Ren mRNA, FIG. 14/15, read-out: IC50, inhibition of cap-dependent translation (FF relative to REN); for inhibition of cap-dependent translation in vitro (in words): screen at 2 μM compound
Experimental: Structure-Activity Relationships. With a number of amidino-rocaglates and amino-rocaglates in hand, we evaluated their inhibition of eIF4A-dependent translation using an in vitro assay as depicted in FIG. 14, where a bicistronic reporter mRNA was designed for translation in Krebs-2 extracts. In FIG. 14 the following description applies (a) IC50 was determined from fitted sigmoid curves; […] indicates the concentration of compound that inhibits cap-dependent translation by 50%, which was normalized by cap-independent translation. For its determination, the bicistronic reporter FF/HCV/Ren mRNA was used to produce Firefly luciferase (cap-dependent) and Renilla luciferase (cap-independent) in Krebs-2 extracts in the presence of indicated compounds at various concentrations. In particular, translation of Firefly luciferase (FF) is cap-dependent and depends on eIF4A activity; in contrast, translation of Renilla luciferase (REN) utilizes the HCV internal ribosome entry site (IRES) which functions independently of eIF4A. IC50's were determined by the inhibition of FF relative to REN obtained in the presence of compound relative to vehicle controls and normalized to REN as an internal control. […] In accordance with the eIF4A-RNA-rocaglamide (2) co-crystallographic analysis (FIG. 4), the amide carbonyl of 2 interacts with Gln195 of eIF4A as a H-bond acceptor, while the tertiary hydroxyl of 2 serves as a H-bond donor to an RNA base. […] To further verify the hypothesis, amidino-rocaglates (pKa of N—H˜26.7-30.7 in DMSO, strong H-bond donors) and amino-rocaglates (pKa of N—H˜36 to 44 in DMSO, weak H-bond donors) were next evaluated. […] Conversely, benzyl amidine 9e had IC50=60 nM, whereas the methylene tether may allow conformational adjustment to avoid rigid repulsion in the binding pocket.
The rocaglate collection was also tested in in vitro translation assays using cell-free extracts with a previously described bicistronic mRNA containing the HCV IRES, which is not dependent on eIF4A activity and served as an internal control (FIG. 19C).
In Vitro Translation Assays. In vitro translation assays performed in Krebs-2 cell extracts were supplemented with 5 mM MgCl2, 30 mM Tris-HCl (pH 7.5), 1.5 mM ATP, 0.1 mM GTP, 0.6 mM CTP, 10 mM dipotassium creatine phosphate, 80 μg/mL creatine kinase, and 0.04 mM amino acids. The specified mRNA reporters were added to each reaction at a final concentration of 10 ng/μL. The translation reactions were incubated with or without compound for 60 minutes at 30° C. prior to the measurement of luciferase activities.
FIGS. 19A-19C. Rocaglate activity profiling. 19A. Assessing eIF4A1:poly r(AG)8 (SEQ ID NO: 2) RNA binding by FP in the presence of 10 μM rocaglate. Values are expressed relative to vehicle controls and data is rank ordered. n=3±SD. 19B. The change in polarization obtained with eIF4A1:poly r(AG)8 (SEQ ID NO: 2) and eIF4A2:poly r(AG)8 (SEQ ID NO: 2) RNA. Pearson r=0.814; p<0.0001. 19C. Inhibition of cap-dependent translation by rocaglates was measured using the indicated mRNA bicistronic reporter (4 ng/ul) in Krebs-2 extracts at a final compound concentration of 2 μM. n=3±SD.
FIG. 35A-35E are plots showing dose-response curve of FF-HCV-Ren mRNA translation in Krebs extracts with IC50s shown for inhibition of cap-dependent protein synthesis. Values are plotted relative to DMSO controls. n=2 technical replicates performed in duplicate.

eIF4A1 = molecular target: T1, eIF4A1 (Oryctolagus cuniculus, UniProt P29562); test: RNA pulldowns (RPDs) with biotinylated RNA baits in translation extracts; type: binding, Rabbit; details: 500 nM rocaglate, retic lysate
T1 construct: Rabbit reticulocyte lysates (Promega) were pre-incubated with 500 nM of the indicated compound; tissue Promega; host or cells: rabbit reticulocyte lysate
Experimental: To determine the ability of rocaglates to recruit eIF4A to RNA in translation extracts, RNA pulldowns (RPDs) using 30 nt polypurine—or polypyrimidine-biotinylated RNA baits were performed. RNA baits were added to in vitro translation extracts in the presence or absence of rocaglate followed by purification using immobilized streptavidin. […] When the RPDs were performed using ApppG-capped RNA with purified eIF4A1 or eIF4F rather than translation extracts, an increase in eIF4A1:polypyrimidine RNA association with silvestrol was not observed (FIG. 25B).
RNA Pull Down (RPD) Experiments. Rabbit reticulocyte lysates (Promega) were pre-incubated with 500 nM of the indicated compound for 15 minutes at 30° C. prior to the addition of m7GpppG- or ApppG-capped biotinylated RNAs (added to a final concentration of 1 μM biotinylated RNA bait). The reactions were incubated for an additional 15 minutes at 30° C. and then diluted 10× with ice cold wash buffer (0.5% v/v NP-40, 50 mM HEPES (pH 7.3), 150 mM KCl, 2 mM EDTA, 2 mM MgC2,). Magnetic streptavidin beads (NEB) were used to capture the biotinylated RNA baits and the reactions were incubated end over end for 1 hour at 4° C. The beads were then washed three times with ice cold wash buffer (10 minutes per wash) and the RNA bound proteins were eluted by digesting with 50 U of RNaseI (Ambion, AM2294) for 15 minutes at 37° C. Eluted proteins were analyzed by Western blotting.
FIGS. 25A-25B. […] 25A. RPDs performed with the indicated m^7GpppG- or ApppG-capped RNA species incubated in the presence of retic lysate and either vehicle or 500 nM rocaglate. 25B. RPDs performed with m^7GpppG-capped RNA species incubated in the presence of recombinant eIF4A (125 nM) eIF4F or Krebs-2 extracts and either vehicle or 500 nM silvestrol.

T1 sequence (P29562 whole entry): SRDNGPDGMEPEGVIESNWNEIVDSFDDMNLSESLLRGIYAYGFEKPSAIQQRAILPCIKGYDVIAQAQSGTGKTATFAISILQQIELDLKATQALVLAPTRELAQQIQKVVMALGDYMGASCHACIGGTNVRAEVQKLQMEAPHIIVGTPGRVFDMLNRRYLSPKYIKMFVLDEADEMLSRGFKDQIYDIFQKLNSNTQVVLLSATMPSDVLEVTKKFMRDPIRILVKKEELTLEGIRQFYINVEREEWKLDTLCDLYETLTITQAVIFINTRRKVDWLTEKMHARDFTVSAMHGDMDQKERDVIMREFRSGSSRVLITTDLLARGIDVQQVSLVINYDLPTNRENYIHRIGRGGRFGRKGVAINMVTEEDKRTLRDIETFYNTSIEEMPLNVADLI

Row | SMILES | IC50 [1] [µM] | recruitment of eIF4A1 to RNA baits (in words) (eIF4A1) | inhibition of cap-dependent translation in vitro (in words) [1]
1 | CONC(=O)[C@H]1[C@@H](O)[C@@]2(O)c3c(OC)cc(OC)cc3O[C@@]2(c2ccc(OC)cc2)[C@@H]1c1ccccc1 [CR-1-31-B] | 0.272 | eIF4A1 was recruited to the purine-rich mRNA template in a cap-independent manner | –
2 | COc1ccc([C@@]23Oc4cc(OC)cc(OC)c4[C@]2(O)[C@H](O)[C@H](C(=O)N(C)C)[C@H]3c2ccccc2)cc1 [RocA, rocaglamide A] | – | eIF4A1 was recruited to the purine-rich mRNA template in a cap-independent manner | –
3 | COC(=O)[C@@H]1[C@@H](c2ccccc2)[C@]2(c3ccc(OC)cc3)Oc3cc(OC)cc(OC)c3[C@@]23N=C(C)N[C@@]13O [9b] | 0.189 | – | comparable potency to SDS-1-021
4 | COC(=O)[C@H]1[C@@H](O)[C@@]2(O)c3c(OC)cc(O[C@@H]4O[C@@H]([C@H](O)CO)CO[C@H]4OC)cc3O[C@@]2(c2ccc(OC)cc2)[C@@H]1c1ccccc1 [silvestrol] | – | induced eIF4A1 binding to both the polypurine and polypyrimidine baits | potently inhibit cap-dependent translation
